The results in this text go back to patent publication US10464890B2, “PGAM1 inhibitors and methods related thereto” (Emory University, priority 2011, dated 2019).

The target of one data set is PGAM1 (Homo sapiens, UniProt P18669). In words: Thermal melt shift assay, PGAM1. In kind it is binding. As to conditions: increasing concentrations, […] to 80 μM. On the procedure:
In brief, thermal shift assay of compound-protein interaction was performed in 384-well PCR plates with various compound concentrations and 200 μg/ml protein in a buffer solution (20 mM Tris-HCl, 100 mM NaCl, pH 7.4). SYPRO orange was used as a dye to monitor the fluorescence change at 610 nm. Small molecules were dissolved in DMSO and added to protein solution. Final DMSO concentration of solution is 1%. Dissociation constants (Kds) for protein-ligand interaction were calculated using the method as described.
The fluorescence intensity data were fitted to Eq. (1) to obtain ΔHu, ΔCpu, and Tm by nonlinear regression using the program Prism:
The thermal unfolding parameters for 6PGD and PGAM1 alone were determined from 4 control wells, each containing 0.2 mg/mL protein.

In data set [1] the target is T1, PGAM1 in leukemia KG1a cells (Homo sapiens, UniProt P18669).
T1 construct: endogenous in cells; host or cells: KG1a leukemia cells; H1299 lung cancer cells
T1 sequence (P18669 whole entry): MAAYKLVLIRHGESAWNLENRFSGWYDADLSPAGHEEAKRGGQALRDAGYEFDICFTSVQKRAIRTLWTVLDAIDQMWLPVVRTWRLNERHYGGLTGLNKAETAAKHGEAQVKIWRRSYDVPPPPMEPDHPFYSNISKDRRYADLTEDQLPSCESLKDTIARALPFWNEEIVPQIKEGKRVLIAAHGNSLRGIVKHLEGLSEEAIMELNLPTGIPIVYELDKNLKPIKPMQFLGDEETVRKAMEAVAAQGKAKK
In words: PGAM1 inhibition in leukemia KG1a cells. As to conditions: leukemia KG1a cells (2h); compared to alizarin, alizarin Red S, PGMI-001A. The format is cell-based.

Data set [2] has as its system H1299 cells. In words: Intracellular ATP assay. The format is cell-based, human. On the procedure:
Cellular lactate production was measured under normoxia with a fluorescence-based lactate assay kit (MBL). Phenol red-free RPMI medium without FBS was added to a 6 well-plate of subconfluent cells, and was incubated for 1 h at 37° C. After incubation, 1 ml of media from each well was assessed using the lactate assay kit. Cell numbers were counted by a microscope (×40). Oxygen consumption rates were measured with a Clark type electrode equipped with 782 oxygen meter (Strathkelvin Instruments). 1×10^7 cells were resuspended in RPMI 1640 medium with 10% FBS and placed into a water-jacked chamber RC300 (Strathkelvin Instruments) and recording was started immediately. Intracellular ATP concentration was measured by an ATP bioluminescent somatic cell assay kit (Sigma). 1×10^6 cells were trypsinized and resuspended in ultrapure water. Luminescence was measured with spectrofluorometer (SPECTRA Max Gemini; […]) immediately after the addition of ATP enzyme mix to cell suspension.

Data set [3] concerns H1299 cells. In words: Oxidative PPP flux assay using 14CO2 release. In kind it is cell-based, human. On the procedure:
Cells were seeded on 6-cm dishes that are placed in a 10-cm dish with 2 sealed pinholes on the top. ^14CO2 released from cells was collected by completely sealing the 10-cm dish, in which the cells on the 6-cm dish were incubated in 2 ml of medium containing [1-^14C]- or [6-^14C]-glucose, respectively, at a final specific activity of 10 μCi/ml glucose at 37° C. for 3 h. The oxidative PPP flux was stopped by injecting 0.3 ml of 50% TCA through one of the holes on the top, and at the same time ^14CO2 released was trapped by injecting 0.3 ml of Hyamine Hydroxide into a small cup placed on the 10-cm dish through the second hole. Krebs cycle measurements, obtained in parallel samples incubated with [6-^14C]-glucose, were used to correct the oxidative PPP flux measurements obtained from samples incubated with [1-^14C]-glucose. Each dish was completely re-sealed with parafilm and incubated overnight at room temperature. Hyamine Hydroxide in the small cup was dissolved into 60% methanol and directly subjected to scintillation counting.

Data set [4] has as its system H1299 cells. In words: Cell proliferation assay, H1299. The format is cell-based, human. On the procedure: (§1) For leukemia cell proliferation assay, 10×10^4 cells were seeded in non-tissue culture coated 6-well plate and incubated at 37° C. for indicated times. Cell numbers were counted by trypan blue exclusion under a microscope (×40) at indicated times and the percentage of cell proliferation was determined by comparing PGAM1 knockdown cells to pLKO.1 vector expressing cells. […] Cell viability was determined by counting drug-treated cells compared to DMSO-treated control cells with trypan blue exclusion under a microscope (×40) and by using CellTiter96Aqueous One solution proliferation kit (Promega). For adherent cell proliferation assay such as H1299 and MDA-MB231 cells, 5×10^4 cells were seeded in 6-well plate 24 h before the assay starts and were cultured at 37° C. 24 h after seeding, cells were treated with 5 μM Methyl-2PG and incubated at 37° C. for indicated times. Cell proliferation was determined by the increase in cell number indicated times after the treatment starts compared to that at the treatment starts for each cell line (T=0). Cell numbers were counted by trypan blue exclusion under a microscope (×40). For adherent cell viability assay with trypan blue exclusion, 5×10^4 cells were seeded in 6-well plate 24 h before the assay starts and were cultured at 37° C. […] Cell viability was determined by counting drug-treated cells compared to DMSO-treated control cells with trypan blue exclusion under a microscope (×40). For MTT cell viability assay of adherent cells, 5×10^3 cells were seeded in 96-well plate 24 h before the assay starts and were cultured at 37° C. […] Cell viability was determined by using CellTiter96Aqueous One solution proliferation kit (Promega).

Data set [5] concerns diverse human cancer and leukemia cells. Briefly: Cell proliferation of diverse cancer and leukemia cells. The format is cell-based. As to conditions: diverse human cancer and leukemia cells incl. H1299, KG1a, 212LN; 72h. On the procedure: as §1, with “(×40).” for “(×40). For adherent cell viability assay with trypan blue exclusion, 5×10^4 cells were seeded in 6-well plate 24 h before the assay starts and were cultured at 37° C.”, “(×40).” for “(×40). For MTT cell viability assay of adherent cells, 5×10^3 cells were seeded in 96-well plate 24 h before the assay starts and were cultured at 37° C.”

Data set [6] has as its system human dermal fibroblasts (HDF), human foreskin fibroblasts (HFF), HaCaT keratinocyte cells, melanocyte PIG1 cells. In words: Cell proliferation of normal human cells. In kind it is cell-based. On the procedure: as §1, with “(×40).” for “(×40). For adherent cell viability assay with trypan blue exclusion, 5×10^4 cells were seeded in 6-well plate 24 h before the assay starts and were cultured at 37° C.”, “(×40).” for “(×40). For MTT cell viability assay of adherent cells, 5×10^3 cells were seeded in 96-well plate 24 h before the assay starts and were cultured at 37° C.”

In the next data set the test system is H1299 cells xenograft. In words: H1299 xenograft in nude mice. The format is in vivo.
Data set [7] concerns peripheral blood mononucleocytes and bone marrow CD34+ cells from healthy donors. In words: Cells from healthy human donors. The format is cell-based. The source says:
Approval of use of human specimens was given by the Institutional Review Board of Emory University School of Medicine. All clinical samples were obtained with informed consent with approval by the Emory University Institutional Review Board. Clinical information for the patients was obtained from the pathological files at Emory University Hospital under the guidelines and with approval from the Institutional Review Board of Emory University School of Medicine and according to the Health Insurance Portability and Accountability Act. Only samples from patients that were not previously treated with chemotherapy or radiation therapy were used. Mononuclear cells (MNCs) were isolated from peripheral blood and bone marrow samples from human leukemia patients or peripheral blood samples from healthy donors using lymphocyte separation medium (Cellgro).
Only samples from patients that were not previously treated with chemotherapy or radiation therapy were used. Mononuclear cells (MNCs) were isolated from peripheral blood and bone marrow samples from human leukemia patients or peripheral blood samples from healthy donors using lymphocyte separation medium (Cellgro).

Where [8] appears, read: H1299 cells treated with PGMI-004A.
Where [9] appears, read: 100 mg/kg/day i.p. for 21 days from 6 days post-injection, vs vehicle.
Setting [10] is: H1299 PGAM1 knockdown cells, methyl-2-PG.

“Also recorded” adds a separate entry of the source.

Chain of PGAM1 (P18669 whole entry): as above

`O=C1c2ccccc2C(=O)c2c1cc(S(=O)(=O)Nc1ccc(C(F)(F)F)cc1)c(O)c2O` [PGMI-004A, N-(4-trifluoromethyl)-penyl-3,4-dihydroxy-9,10-dioxo-2-anthracenesulfonamide]: the “PGAM1 melting temperature (Tm)” value at PGAM1 was “raises PGAM1 melting temperature (Tm) in a dose-dependent manner”. The “potency of PGAM1 inhibition in cells” value in [1] is “more potent activity; also recorded: enhanced potency to inhibit PGAM1”. In addition, the “intracellular ATP levels” value in the data set with H1299 cells [2] (setting [8]) is “no significant effect on intracellular ATP levels”. Further, the “oxidative PPP flux” value in the data set on H1299 cells [3] (setting [8]) is “decreased oxidative PPP flux”. In addition, the cell proliferation result in the data set with H1299 cells [4] (H1299 cells) is reported as “reduced”. Further, the cell proliferation result in data set [5] is “decreased cell proliferation”. The “cell proliferation / non-specific toxicity in normal cells” value in data set [6] is recorded as “does not affect cell proliferation; also recorded: minimal non-specific toxicity”. Moreover, in the data set with H1299 cells xenograft (setting [9]), the tumor growth result is “significantly decreased” and the tumor size result was “significantly decreased”. Further, the “PGAM1 enzyme activity in resected tumors” value in the data set on H1299 cells xenograft (xenograft nude mice treated with PGMI-004A) is reported as “effectively inhibits PGAM1 enzyme activity”. Also, the “cell viability of CD34+ cells isolated from bone marrow samples” value in data set [7] (four healthy donors) is reported as “did not affect cell viability”. Besides, the “cell viability of mononucleocytes in peripheral blood samples” value in data set [7] (two healthy human donors, 120 h) is “no toxicity; also recorded: did not affect cell viability”.

For `COC(=O)[C@@H](CO)OP(=O)(O)O` [methyl-2-PG, methyl ester of D(+)-2-phosphoglyceric acid, reference compound], in the data set with H1299 cells [2] (H1299 cells with stable knockdown of PGAM1, methyl-2-PG), the “intracellular ATP levels” value was “no significant effect on intracellular ATP levels”. The “oxidative PPP flux” value with H1299 cells [3] (setting [10]) is on record as “rescues the decreased oxidative PPP flux”. For the same compound, in the data set with H1299 cells [4] (setting [10]), the cell proliferation result is listed as “partially restores the reduced cell proliferation”.
